From PubChem BioAssay (NCI)
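All cell lines were grown in 96-well plates and treated with compound for 48 hours. TGI is the concentration that stops growth completely.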

Columns and labels:
Assay in all cases: growth of human tumour cells (NCI), 48 h
[1] = test system: KM12 colon
[2] = test system: NCI-H460 lung
[3] = test system: HS 578T breast
[4] = test system: SF-295 CNS
[5] = test system: NCI-H23 lung
[6] = test system: SK-OV-3 ovarian
[7] = test system: NCI-H226 lung
[8] = test system: 786-0 renal
[9] = test system: OVCAR-8 ovarian
[10] = test system: SN12C renal
[11] = test system: SF-539 CNS
[12] = test system: BT-549 breast
[13] = test system: SW-620 colon

SMILES	TGI [1]	TGI [2]	TGI [3]	TGI [4]	TGI [5]	TGI [6]	TGI [7]	TGI [8]	TGI [9]	TGI [10]	TGI [11]	TGI [12]	TGI [13]
Cc1ccc(S(=O)(=O)n2ccn3c(=O)cc(C)nc23)cc1	> 10 µM	> 10 µM	> 10 µM	> 10 µM	> 10 µM	> 10 µM	> 10 µM	> 10 µM	> 10 µM	> 10 µM	> 10 µM	> 10 µM	> 10 µM
C=CCSc1nn(CC=C)cc2ncnc1-2	> 100 µM	> 100 µM	> 100 µM	> 100 µM	> 100 µM	–	> 100 µM	> 100 µM	> 100 µM	> 100 µM	> 100 µM	> 100 µM	> 100 µM
CC(O[Si](C)(C)C(C)(C)C)[C@H](NC(=O)OCC(Cl)(Cl)Cl)C(=O)O (stereo partly drawn)	> 100 µM	> 100 µM	> 100 µM	> 100 µM	> 100 µM	> 100 µM	> 100 µM	> 100 µM	> 100 µM	> 100 µM	> 100 µM	> 100 µM	> 100 µM
COc1cc2c(cc1OC)-c1cc3ccccc3c(=O)n1CCC2	38 µM	11.2 µM	> 100 µM	> 85 µM	65.1 µM	> 100 µM	70.5 µM	> 51.3 µM	61.2 µM	78.9 µM	26 µM	89.2 µM	> 87.9 µM
Cc1ccc(S(=O)(=O)C2=c3ncccc3=C3C(=O)c4ccccc4C(=O)C32)cc1 (stereo not drawn)	> 76.6 µM	> 56.9 µM	81.8 µM	> 100 µM	> 100 µM	> 100 µM	> 100 µM	50.3 µM	> 100 µM	> 100 µM	46.1 µM	> 88.6 µM	> 100 µM
CC1C(c2ccccc2O)c2cc3c(cc2OC1N1CCCC1)OCO3 (stereo not drawn)	> 100 µM	32.4 µM	43.3 µM	74.9 µM	> 100 µM	> 100 µM	> 100 µM	91 µM	> 100 µM	35.8 µM	50.2 µM	> 100 µM	44.4 µM
CC(C)C1OCC(CO)CO1 (stereo not drawn)	> 100 µM	> 100 µM	> 100 µM	> 100 µM	> 100 µM	> 100 µM	> 100 µM	> 100 µM	> 100 µM	> 100 µM	> 100 µM	> 100 µM	> 100 µM
CC(C)(C)SC1=CCC[C@@H](P(=O)(c2ccccc2)c2ccccc2)[C@@H]2CCC[C@@H]12	35.5 µM	30.8 µM	47.6 µM	29 µM	33.6 µM	33.8 µM	35.6 µM	30.4 µM	39.2 µM	29.3 µM	36.5 µM	32.3 µM	85.3 µM
CCOC(=O)Cn1nc2ccc(Nc3nc4ccccc4nc3C(=O)OCC)cc2n1	> 100 µM	> 100 µM	> 100 µM	> 100 µM	> 100 µM	> 100 µM	> 100 µM	> 100 µM	> 100 µM	> 100 µM	52.8 µM	> 100 µM	> 100 µM
Cc1ccc(C2SC(N)=Nc3c2c(C)nn3C(=O)c2ccncc2)cc1 (stereo not drawn)	> 10 µM	> 10 µM	> 10 µM	> 10 µM	> 10 µM	> 10 µM	> 10 µM	> 10 µM	> 10 µM	> 10 µM	> 10 µM	> 10 µM	> 10 µM
COC(=O)[C@]1(c2cc3ccccc3[nH]2)CC2CN(CC(=O)N(C)OC)C1C1OC(C)(C)OC21 (stereo partly drawn)	> 100 µM	> 100 µM	> 100 µM	> 100 µM	> 100 µM	> 100 µM	> 100 µM	> 100 µM	> 100 µM	> 100 µM	> 100 µM	> 100 µM	> 100 µM
COc1cc(/C=C2\NC(=O)N(/C=C3\C(=O)Oc4ccccc4C3=O)C2=O)ccc1O	> 100 µM	> 100 µM	> 100 µM	> 100 µM	> 100 µM	> 100 µM	> 100 µM	> 100 µM	> 100 µM	> 100 µM	> 100 µM	> 100 µM	> 100 µM
CS(=O)(=O)C(=Cc1ccccc1Cl)S(C)(=O)=O	> 46.4 µM	> 100 µM	> 100 µM	> 46.4 µM	> 100 µM	> 100 µM	> 100 µM	> 100 µM	> 100 µM	> 100 µM	> 100 µM	> 100 µM	> 100 µM
O=[N+]([O-])c1cc(Cl)ccc1S(=O)(=O)c1ccccc1	> 100 µM	> 100 µM	> 100 µM	> 100 µM	> 100 µM	> 100 µM	> 100 µM	> 100 µM	> 100 µM	> 100 µM	> 100 µM	> 100 µM	> 100 µM
CCCNc1[nH]c(C(C)=O)c(N)c1C(=S)Nc1ccccc1	> 100 µM	> 100 µM	> 100 µM	> 100 µM	> 100 µM	> 100 µM	75 µM	75.6 µM	> 100 µM	> 100 µM	65.4 µM	68.4 µM	> 100 µM
CC[n+]1[b-](C(C)(C)C)n(/N=C(\C)C(C)(C)C)[b-](C(C)(C)C)[n+]1CC	> 100 µM	> 100 µM	> 100 µM	> 100 µM	> 100 µM	–	> 100 µM	> 100 µM	> 100 µM	> 100 µM	> 100 µM	> 100 µM	> 100 µM

SMILES	TGI [1]	TGI [2]	TGI [3]	TGI [4]	TGI [5]	TGI [6]	TGI [7]	TGI [8]	TGI [9]	TGI [10]	TGI [11]	TGI [12]	TGI [13]
C[C@H](CCc1nc(C#N)c(N)o1)[C@H]1CC[C@H]2[C@@H]3[C@@H](O)CC4C[C@@H](O)CC[C@]4(C)[C@H]3C[C@@H](O)[C@]12C (stereo partly drawn)	53.8 µM	54.9 µM	62.6 µM	53.2 µM	58.5 µM	73.8 µM	62.9 µM	> 86.7 µM	41.7 µM	> 79.6 µM	59.5 µM	25.3 µM	55 µM
Nc1nc(Cl)c2ncn(Cc3ccccc3CCl)c2n1	39 µM	36.8 µM	77.6 µM	23.4 µM	8.84 µM	52.1 µM	9.95 µM	52 µM	19.6 µM	5.62 µM	38.2 µM	22.9 µM	11.8 µM
COc1ccc(-c2nc3ccc(C)cc3o2)c(OC)c1	40.4 µM	65.6 µM	71.4 µM	46.8 µM	87.5 µM	> 100 µM	79.1 µM	41.7 µM	77.1 µM	> 82.1 µM	40.9 µM	67.1 µM	> 86 µM
CC[C@H](CCCCC1CC[C@@H]2CC(=O)C[C@H]12)OC (stereo partly drawn)	> 100 µM	> 100 µM	> 100 µM	> 100 µM	> 100 µM	> 100 µM	> 100 µM	> 100 µM	> 100 µM	> 100 µM	> 100 µM	> 100 µM	> 100 µM
COc1cccc(/C=N/n2c(-c3ccccc3)n[nH]c2=O)c1	> 100 µM	> 100 µM	38.8 µM	54.4 µM	90.5 µM	> 100 µM	> 100 µM	> 100 µM	96.9 µM	> 100 µM	> 100 µM	86.1 µM	> 100 µM
CCCCNc1nc(SC)nc2nc[nH]c12	> 100 µM	> 100 µM	21.9 µM	> 100 µM	> 100 µM	41.9 µM	> 100 µM	> 100 µM	> 100 µM	> 100 µM	> 100 µM	> 100 µM	> 100 µM
CC(=O)OCCn1c(Cc2ccc([N+](=O)[O-])cc2)nn(C(C)=O)c1=O	> 100 µM	> 100 µM	> 100 µM	> 100 µM	> 100 µM	> 100 µM	> 100 µM	> 100 µM	> 100 µM	> 100 µM	> 100 µM	> 100 µM	> 100 µM
COC(CNC(=O)C(C)NC(=O)C(C)NC(=O)c1ccccc1)OC (stereo not drawn)	> 100 µM	> 100 µM	> 100 µM	> 100 µM	> 100 µM	> 100 µM	> 100 µM	> 100 µM	> 100 µM	> 100 µM	> 100 µM	> 100 µM	> 100 µM
Nc1nc(Cl)cc(Nc2ccc3c(c2)CCC3)n1	> 100 µM	> 100 µM	> 100 µM	> 100 µM	> 100 µM	> 100 µM	> 100 µM	> 100 µM	> 100 µM	> 100 µM	> 100 µM	> 100 µM	> 100 µM
COc1cc2c[n+](C)c3c4ccccc4ccc3c2cc1OC	2.65 µM	> 51.2 µM	13 µM	> 73.3 µM	14.1 µM	32.5 µM	14.4 µM	60.4 µM	16.8 µM	7.95 µM	23.7 µM	16.7 µM	> 63.6 µM
O=C(O)/C(=C\c1ccccc1)Cc1ccccc1	> 100 µM	> 100 µM	> 100 µM	> 100 µM	> 100 µM	> 100 µM	> 100 µM	> 100 µM	> 100 µM	> 100 µM	> 100 µM	> 100 µM	> 100 µM
CCOC(=O)c1sc2nc(SC)nc(Nc3ccc(OC)c(OC)c3)c2c1N	> 100 µM	> 100 µM	64.3 µM	45.6 µM	> 100 µM	52.9 µM	> 100 µM	> 100 µM	> 100 µM	> 100 µM	> 100 µM	> 100 µM	> 100 µM
CCCCCCCCCCCCCCCCCCNc1ccn(C2OC(CO)C(OP(=O)(O)OCC3CCC(n4ccc(N)nc4=O)O3)C2O)c(=O)n1 (stereo not drawn)	> 100 µM	> 100 µM	> 100 µM	> 100 µM	> 100 µM	> 100 µM	> 100 µM	> 100 µM	> 100 µM	> 100 µM	> 100 µM	89.8 µM	> 100 µM
CC(=O)Oc1ccc(-c2cc3ccccc3oc2=O)cc1OC(C)=O	33.2 µM	> 100 µM	> 100 µM	67.9 µM	> 100 µM	–	> 100 µM	> 100 µM	> 100 µM	> 100 µM	> 100 µM	> 100 µM	> 100 µM
O=C1c2c(Br)sc(Br)c2[C@H]2NC(=S)O[C@@H]12	38.1 µM	38.3 µM	60 µM	45.5 µM	29.9 µM	33.3 µM	42.9 µM	28.5 µM	24.5 µM	32.7 µM	33.6 µM	30.3 µM	11.3 µM
C=CCCCC1(C)CCCCNC1=O (stereo not drawn)	> 10 µM	> 10 µM	> 10 µM	> 10 µM	> 10 µM	> 10 µM	> 10 µM	> 10 µM	> 10 µM	> 10 µM	> 10 µM	> 10 µM	> 10 µM
